# Data from US12281119B2, “Imidazo[2,1-f][1,2,4]triazin-4-amine derivatives as TLR7 agonist” (BEIGENE, LTD., priority 2019, dated 2025).
# Target: T1, human TLR7 (Homo sapiens, UniProt Q9NYK1)
# T1 sequence (Q9NYK1 27-1049): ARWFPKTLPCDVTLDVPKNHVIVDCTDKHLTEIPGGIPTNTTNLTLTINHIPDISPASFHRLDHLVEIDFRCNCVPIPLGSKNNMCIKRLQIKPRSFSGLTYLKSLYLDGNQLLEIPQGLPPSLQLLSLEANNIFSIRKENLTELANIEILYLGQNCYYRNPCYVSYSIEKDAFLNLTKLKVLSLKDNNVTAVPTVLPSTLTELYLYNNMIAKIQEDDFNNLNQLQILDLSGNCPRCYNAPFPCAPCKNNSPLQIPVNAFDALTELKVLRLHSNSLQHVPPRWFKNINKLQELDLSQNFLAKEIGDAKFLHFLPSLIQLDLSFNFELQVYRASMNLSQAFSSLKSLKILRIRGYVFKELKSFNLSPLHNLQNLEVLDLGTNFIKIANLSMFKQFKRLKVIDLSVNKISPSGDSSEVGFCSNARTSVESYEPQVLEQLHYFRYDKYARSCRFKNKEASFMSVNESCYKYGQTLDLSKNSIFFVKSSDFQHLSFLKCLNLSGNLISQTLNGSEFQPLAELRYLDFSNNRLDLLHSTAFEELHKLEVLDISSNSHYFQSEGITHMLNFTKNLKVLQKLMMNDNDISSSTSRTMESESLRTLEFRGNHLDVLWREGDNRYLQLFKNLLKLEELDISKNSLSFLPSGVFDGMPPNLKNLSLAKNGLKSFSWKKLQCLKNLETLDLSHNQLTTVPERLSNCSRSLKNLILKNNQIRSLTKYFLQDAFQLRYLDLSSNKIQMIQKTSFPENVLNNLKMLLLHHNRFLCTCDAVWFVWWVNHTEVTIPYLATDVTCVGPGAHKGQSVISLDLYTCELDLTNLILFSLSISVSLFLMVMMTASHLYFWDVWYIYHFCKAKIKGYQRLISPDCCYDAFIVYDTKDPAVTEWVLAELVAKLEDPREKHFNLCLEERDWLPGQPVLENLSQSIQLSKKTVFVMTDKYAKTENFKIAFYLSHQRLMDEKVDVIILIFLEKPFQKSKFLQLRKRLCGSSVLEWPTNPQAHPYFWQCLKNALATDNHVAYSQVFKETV
# Test: HEK293-Blue hTLR7 reporter assay (QUANTI-BLUE, SEAP readout)
# Type: cell-based
# Design: host or cells: HEK293 (HEK-Blue-hTLR7)
# Details: HEK-Blue-hTLR7 cells, QUANTI-BLUE assay (A1-A76), 24 hrs
# Procedure: HEK293-Blue hTLR7 Reporter Assay:
# HEK-Blue-hTLR7 cell line (Invivogen, Cat. No. hkb-htlr7) was designed so that the expression of the secreted embryonic alkaline phosphatase (SEAP) was induced by activating NF-κ and AP-1 via stimulating human TLR7 with TLR7 agonists.
# HEK-Blue-hTLR7 cells were seeded at a density of 4×10^4 cells/well in a volume of 180 μL in a 96-well plate in DMEM (Cat. No. 11965-092) supplemented with 10% (v/v) heat-inactivated fetal bovine serum (FBS) (Gibco, 10099-1441), 100 U/ml penicillin and 100 μg/ml streptomycin (Gibco, 15140122) containing […], […] and 10% (v/v) heat-inactivated fetal bovine serum. The cells were settled for 5 hrs, then treated with increasing amounts of tested compounds at 37° C. for 24 hrs. Then 20 μL of the supernatant from each well was incubated with 180 uL Quanti-blue substrate solution at 37° C. for 10-30 mins before the activity of the SEAP was determined at 620-655 nm using a spectrophotometer. The EC50 value for each compound was calculated with GraphPad Prism software using the sigmoidal dose-response function.
row,SMILES,EC50
1,"CCCCOc1nc(N)c2ncc(Cc3ccccc3CN3CCCC3)n2n1 [Compound A19, 2-butoxy-7-(2-(pyrrolidin-1-ylmethyl)benzyl)imidazo[2,1-f][1,2,4]triazin-4-amine]",> 10000 nM
2,"CCCCOc1nc(N)c2ncc(Cc3ccc(CN4CCOCC4)cc3)n2n1 [Compound A3, 2-butoxy-7-(4-(morpholinomethyl)benzyl)imidazo[2,1-f][1,2,4]triazin-4-amine]",> 10000 nM
3,"CCCCOc1nc(N)c2ncc(Cc3ccc(OC4C[C@H]5CC[C@@H](C4)N5)cc3F)n2n1 (stereo partly drawn) [Compound A38, 7-(4-(((1R,5S)-8-azabicyclo[3.2.1]octan-3-yl)oxy)-2-fluorobenzyl)-2-butoxyimidazo[2,1-f][1,2,4]triazin-4-amine]",1860 nM
4,"Nc1nc(OCCCC(F)(F)F)nn2c(Cc3cccc(CN4CCCC4)c3)cnc12 [Compound A18, 7-(3-(pyrrolidin-1-ylmethyl)benzyl)-2-(4,4,4-trifluorobutoxy)imidazo[2,1-f][1,2,4]triazin-4-amine]",> 10000 nM
5,"CCCCOc1nc(N)c2ncc(C(O)c3ccccn3)n2n1 (centres unmarked) [Compound A74, (4-amino-2-butoxyimidazo[2,1-f][1,2,4]triazin-7-yl)(pyridin-2-yl)methanol]",> 10000 nM
6,"CCCCOc1nc(N)c2ncc(Cc3ccc(CN4CCN(C)CC4)cc3)n2n1 [Compound A6, 2-butoxy-7-(4-((4-methylpiperazin-1-yl)methyl)benzyl)imidazo[2,1-f][1,2,4]triazin-4-amine]",1510 nM
7,"CCCCOc1nc(N)c2ncc(Cc3cnc(OC4CCNCC4)c(C)c3)n2n1 [Compound A72, 2-butoxy-7-((5-methyl-6-(piperidin-4-yloxy)pyridin-3-yl)methyl)imidazo[2,1-f][1,2,4]triazin-4-amine]",462 nM
8,"CCCCOc1nc(N)c2ncc(Cc3ccc(CN4CCC(N(C)C)C4)cc3)n2n1 (centres unmarked) [Compound A44, 2-butoxy-7-(4-((3-(dimethylamino)pyrrolidin-1-yl)methyl)benzyl)imidazo[2,1-f][1,2,4]triazin-4-amine]",1010 nM
9,"CCCCOc1nc(N)c2ncc(Cc3ccc(F)c(OCCCN(C)C)c3)n2n1 [Compound A24, 2-butoxy-7-(3-(3-(dimethylamino)propoxy)-4-fluorobenzyl)imidazo[2,1-f][1,2,4]triazin-4-amine]",> 10000 nM
10,"CCCCOc1nc(N)c2ncc(Cc3ccc4c(c3)CN(C(C)C)CC4)n2n1 [Compound A9, 2-butoxy-7-((2-isopropyl-1,2,3,4-tetrahydroisoquinolin-7-yl)methyl)imidazo[2,1-f][1,2,4]triazin-4-amine]",> 10000 nM
11,"CCCCNc1nc(N)c2ncc(Cc3ccc(CN4CCCC4)cc3)n2n1 [Compound A67, N2-butyl-7-(4-(pyrrolidin-1-ylmethyl)benzyl)imidazo[2,1-f][1,2,4]triazine-2,4-diamine]",585 nM
12,"CCCCOc1nc(N)c2ncc(Cc3ccc(OC)cn3)n2n1 [Compound A50, 2-butoxy-7-((5-methoxypyridin-2-yl)methyl)imidazo[2,1-f][1,2,4]triazin-4-amine]",> 10000 nM
13,"CCCCOc1nc(N)c2ncc(Cc3ccc(OCCCN(C)C)nc3)n2n1 [Compound A32, 2-butoxy-7-((6-(3-(dimethylamino)propoxy)pyridin-3-yl)methyl)imidazo[2,1-f][1,2,4]triazin-4-amine]",861 nM
14,"CCCCOc1nc(N)c2ncc(Cc3ccc(OCCCN(C)C)cc3)n2n1 [Compound A2, 2-butoxy-7-(4-(3-(dimethylamino)propoxy)benzyl)imidazo[2,1-f][1,2,4]triazin-4-amine]",920 nM
15,"Nc1nc(OCCCC(F)(F)F)nn2c(Cc3ccc(CN4CCCC4)cc3)cnc12 [Compound A69, 7-(4-(pyrrolidin-1-ylmethyl)benzyl)-2-(4,4,4-trifluorobutoxy)imidazo[2,1-f][1,2,4]triazin-4-amine]",1240 nM
16,"CCCCOc1nc(N)c2ncc(Cc3ncccc3OC)n2n1 [Compound A55, 2-butoxy-7-((3-methoxypyridin-2-yl)methyl)imidazo[2,1-f][1,2,4]triazin-4-amine]",> 10000 nM
17,"CCCCOc1nc(N)c2ncc(Cc3ccc(OCCCN4CCCCC4)cc3)n2n1 [Compound A21, 2-butoxy-7-(4-(3-(piperidin-1-yl)propoxy)benzyl)imidazo[2,1-f][1,2,4]triazin-4-amine]",2870 nM
18,"CCCCOc1nc(N)c2ncc(Cc3cccc(CN)c3)n2n1 [Compound A70, 7-(3-(aminomethyl)benzyl)-2-butoxyimidazo[2,1-f][1,2,4]triazin-4-amine]",> 10000 nM
19,"CCCCOc1nc(N)c2ncc(Cc3ccc(OC4CCN(CC)C4)cc3F)n2n1 (centres unmarked) [Compound A60, 2-butoxy-7-(4-((1-ethylpyrrolidin-3-yl)oxy)-2-fluorobenzyl)imidazo[2,1-f][1,2,4]triazin-4-amine]",246 nM
20,"Nc1nc(NCc2ccco2)nn2c(Cc3ccc(CN4CCCC4)cc3)cnc12 [Compound A64, N^2-(furan-2-ylmethyl)-7-(4-(pyrrolidin-1-ylmethyl)benzyl)imidazo[2,1-f][1,2,4]triazine-2,4-diamine]",4000 nM
21,"CCCCOc1nc(N)c2ncc(Cc3ccc(CN4CCN(C(=O)CN(C)C)CC4)cc3)n2n1 [Compound A39, 1-(4-(4-((4-amino-2-butoxyimidazo[2,1-f][1,2,4]triazin-7-yl)methyl)benzyl)piperazin-1-yl)-2-(dimethylamino)ethan-1-one]",543 nM
22,"CCCCOc1nc(N)c2ncc(Cc3ccc(CN4CCCC4)cc3)n2n1 [Compound A1, 2-butoxy-7-(4-(pyrrolidin-1-ylmethyl)benzyl)imidazo[2,1-f][1,2,4]triazin-4-amine]",900 nM
23,"CCCCOc1nc(N)c2ncc(Cc3cccc(CN4CCOCC4)c3)n2n1 [Compound A12, 2-butoxy-7-(3-(morpholinomethyl)benzyl)imidazo[2,1-f][1,2,4]triazin-4-amine]",> 10000 nM
24,"CCCCOc1nc(N)c2ncc(Cc3ccc(Cn4cncn4)cc3)n2n1 [Compound A62, 7-(4-((1H-1,2,4-triazol-1-yl)methyl)benzyl)-2-butoxyimidazo[2,1-f][1,2,4]triazin-4-amine]",> 10000 nM
25,"CCCCOc1nc(N)c2ncc(Cc3ccc(OC4CCNC4)cc3F)n2n1 (centres unmarked) [Compound A61, 2-butoxy-7-(2-fluoro-4-(pyrrolidin-3-yloxy)benzyl)imidazo[2,1-f][1,2,4]triazin-4-amine]",183 nM
26,"CCCCOc1nc(N)c2ncc(Cc3ccc(OCCCNC)cc3)n2n1 [Compound A63, 2-butoxy-7-(4-(3-(methylamino)propoxy)benzyl)imidazo[2,1-f][1,2,4]triazin-4-amine]",996 nM

# Same assay, conditions: HEK-Blue-hTLR7 cells, QUANTI-BLUE assay (C1-C6), 24 hrs
row,SMILES,EC50
1,"CCCCOc1nc(N)c2[nH]cc(Cc3cnc(N4CCNCC4)c(C)c3)c2n1 [Compound C6, 2-butoxy-7-((5-methyl-6-(piperazin-1-yl)pyridin-3-yl)methyl)-5H-pyrrolo [3,2-d]pyrimidin-4-amine]",1080 nM
2,"CCCCOc1cc2c(Cc3cnc(N4CCNCC4)c(Cl)c3)cnn2c(N)n1 [Compound C3, 5-butoxy-3-((5-chloro-6-(piperazin-1-yl)pyridin-3-yl)methyl)pyrazolo[1,5-c]pyrimidin-7-amine]",> 10000 nM
3,"CCCCOc1nc(N)n2ncc(Cc3ccc(CN4CCCC4)cc3)c2n1 [Compound C2, 2-butoxy-8-(4-(pyrrolidin-1-ylmethyl)benzyl)pyrazolo[1,5-a][1,3,5]triazin-4-amine]",> 10000 nM
